Test results as given in the NIST ThermoML archive (doi:10.1016/j.fluid.2004.11.021).

Assay: xn = mol fraction of the nth substance listed
Details: Fluid (supercritical or subcritical phases), Other PVT measurement

CF [fluoromethane] + [N-]=[N+]=O
Details	molar volume [m3/mol]
263.02 K, 2088.5 kPa, x2 = 0.6161	0.000766
263.03 K, 1936.1 kPa, x2 = 0.508	0.000863
267.98 K, 1999.2 kPa, x2 = 0.508	0.000863
268 K, 2048.2 kPa, x2 = 0.3047	0.00074
268 K, 2223.9 kPa, x2 = 0.6161	0.000766
272.89 K, 2060.3 kPa, x2 = 0.508	0.000863
272.98 K, 2295.8 kPa, x2 = 0.6161	0.000766
273.01 K, 2223.5 kPa, x2 = 0.3047	0.000741
273.05 K, 1878.4 kPa, x2 = 0.1467	0.000909
277.86 K, 2121 kPa, x2 = 0.508	0.000863
282.81 K, 2371.8 kPa, x2 = 0.3047	0.000741
282.83 K, 1994.7 kPa, x2 = 0.1467	0.000909
283.04 K, 2438 kPa, x2 = 0.6161	0.000767
287.8 K, 4359.8 kPa, x2 = 0.8263	0.000305
288.08 K, 2242.8 kPa, x2 = 0.508	0.000864
292.79 K, 2109.4 kPa, x2 = 0.1467	0.00091
292.93 K, 4761.6 kPa, x2 = 0.8263	0.000305
292.96 K, 2512.2 kPa, x2 = 0.3047	0.000741
293.07 K, 2574.6 kPa, x2 = 0.6161	0.000767
298.08 K, 2168.4 kPa, x2 = 0.1467	0.00091
298.09 K, 2358.5 kPa, x2 = 0.508	0.000864
298.11 K, 2642.6 kPa, x2 = 0.6161	0.000767
298.17 K, 2591.9 kPa, x2 = 0.3047	0.000741
302.97 K, 5179 kPa, x2 = 0.8263	0.000305
307.96 K, 5380.9 kPa, x2 = 0.8263	0.000305
308.05 K, 2279.3 kPa, x2 = 0.1467	0.00091
308.06 K, 2474.5 kPa, x2 = 0.508	0.000865
308.13 K, 2731.2 kPa, x2 = 0.3047	0.000742
308.15 K, 2774.9 kPa, x2 = 0.6161	0.000768
312.91 K, 5577.9 kPa, x2 = 0.8263	0.000305
318.05 K, 2388.7 kPa, x2 = 0.1467	0.000911
318.11 K, 2867.7 kPa, x2 = 0.3047	0.000742
318.12 K, 2588.2 kPa, x2 = 0.508	0.000865
318.12 K, 2904.6 kPa, x2 = 0.6161	0.000768
328.03 K, 2496.3 kPa, x2 = 0.1467	0.000911
328.09 K, 3033 kPa, x2 = 0.6161	0.000768
328.1 K, 3002.9 kPa, x2 = 0.3047	0.000742
328.11 K, 2699.9 kPa, x2 = 0.508	0.000865
338.08 K, 2810.2 kPa, x2 = 0.508	0.000866
338.08 K, 3160 kPa, x2 = 0.6161	0.000769
338.09 K, 2603.1 kPa, x2 = 0.1467	0.000912
338.09 K, 3135.8 kPa, x2 = 0.3047	0.000743
347.94 K, 2707 kPa, x2 = 0.1467	0.000912
348.05 K, 3285.8 kPa, x2 = 0.6161	0.000769
348.06 K, 2919.8 kPa, x2 = 0.508	0.000866
348.06 K, 3267 kPa, x2 = 0.3047	0.000743
354.94 K, 2779.9 kPa, x2 = 0.1467	0.000912
358.03 K, 3396.5 kPa, x2 = 0.3047	0.000743
358.03 K, 3410.5 kPa, x2 = 0.6161	0.000769
358.05 K, 3028.8 kPa, x2 = 0.508	0.000867
